# Experimental data reported in patent US7906624B2, “Binding peptidomimetics and uses of the same” (The Trustees of the University of Pennsylvania, priority 2004, dated 2011).
# Columns and labels:
# [1] = tested on: T6-17 cells (Her2 transformed cells); assay: MTT cell proliferation assay, T6-17 cells; type: cell-based
# Experimental: (§1) FIG. 5, panels A and B show inhibition of cell proliferation by ASA. Effects of ASA treatment, or treatments with streptavidin and the peptide AHNP, on the proliferation of T6-17 (Her2 transformed cells, Panel A) or NR6 (control cells, Panel B) were shown; Cell proliferation was measured by the standard MTT assay performed on poly-HEMA plates (for T6-17) or regular tissue culture plates (for NR6).
# (§2) T6-17 and NR6 cells were grown in DMEM medium supplemented with 10% heat inactivated fetal calf serum, L-glutamine (2 mM), penicillin (100 U/ml) and streptomycin (100 μg/ml) at 37° C. in a humidified 5% CO2 atmosphere.
# (§3) The MTT assay has been used modified method for measuring cell growth. T6-17 cells or NR6 cells were seeded in poly 2-hydroxyethyl methacrylate coated 96 well plates (50 μl/well, 800 cells/well or 1200 cells/well). Then the Streptavidin or ASA protein or the AHNP peptide were (50 μl/well, 0.69 μM or 6.9 μM) and incubate at 37° C. in a humidified 5% CO2 atmosphere for 48 hr. A total of 25 μl of MTT solution (5 mg/ml in PBS) was added to each well, and after 2 hr of incubation at 37° C., 100 μl of the extraction-buffer (20% w/v SDS, 50% N,N-dimethyl formamide, pH 4.7) were added. After an overnight incubation at 37° C., the optical density at […] was measured using an ELISA reader.
# [2] = tested on: NR6 cells (control cells); assay: MTT cell proliferation assay, NR6 control cells; type: cell-based; conditions: NR6 control cell line
# Experimental: as §1, §2, §3
# [3] = ELISA on biotin-coated plate, bound protein detected with anti-streptavidin antibody-HRP; type: binding; conditions: 0-1.1 μg/well on biotin-coated plate
# Experimental: (§4) FIG. 4, panels A and B show data from enzyme-linked immunosorbent assay (ELISA) analysis of recombinant proteins for biotin and Her2-Fc binding ability. Panel A: Streptavidin or ASA was immobilized on biotin-coated plate. Bound protein was detected using an anti-streptavidin antibody-HRP. Panel B: After immobilization of Streptavidin or ASA on biotin-coated plate, Her2-human Fc fusion was added to each plate and bound fusion protein was detected using anti-Her2 antibody and anti-mouse IgG-HRP. The amounts of Streptavidin or ASA fusion protein used in this experiment were: well 1: 0; 2: 0.11 ng; 3: 1.1 ng; 4: 11 ng; 5: 110 ng; 6: 1100 ng.
# (§5) The binding of ASA to Biotin and Her2 was determined by a modified ELISA assay. ELISA was performed at room temperature (RT) or 4° C. Purified streptavidin or ASA (0-1.1 μg/well) was immobilized on the biotin-coated ELISA plate (Pierce) for 1 hr at 4° C. in PBS. […] The A450 nm value of the plates was determined using an ELISA reader. Bound streptavidin was detected by the same method using an anti-streptavidin-HRP in PBS (1; 500 dilution; 50 μL/well).
# (§6) The ASA fusion protein was tested to determine if it would bind to biotin as well as Her2. […] Bound Her2-Fc was detected by the mouse anti-Her2 antibody (4D5) and the HRP-conjugated anti-mouse IgG antibody.
# [4] = tested on: T6-17 cells injected subcutaneously into nude mice; assay: T6-17 tumor growth in nude mice; type: in vivo; conditions: for reduction of tumor size: day 14
# Experimental: 1 million of T6-17 cells were injected subcutaneously into nude mice to induce the tumor growth. Panel A. Treatment of ASA started from day 0. Panel B. Treatment started on day 2 after tumor were palpable. NCR homozygous athymic (nude) mice (six to eight weeks-old) were purchased from the National Cancer Institute. To induce tumor, 10^6 transformed T6-17 cells were suspended in 100 μl of PBS and injected subcutaneously into the flank of each animal. Animals were maintained in accordance with guidelines of the Institutional Animal Care and Use Committee (IACUC) of the University of […]. Tumor volume was calculated by the formula: π*length*width*Height/6. T6-17 cells were transformed by the over-expression of human Her2/neu […]. […] In one experiment, animals were treated with either streptavidin or ASA (11.25 mg/kg/week). Treatment stared from day 0 and was provided to animals by three subcutaneous injections each week. […] Treatment was also provided to mice by a different administration route in a second experiment, in which intraperitoneal treatment started day 2 after palpable tumor appeared ( 2 cubic mm) (FIG. 6, Panel B). ASA was given at the dose of 15 mg/kg/week, divided into three injections.
# [5] = target: T1, Her2-human Fc fusion protein (Homo sapiens, UniProt P04626); assay: ELISA for Her2-Fc binding of protein immobilized on biotin-coated plate; conditions: 0-1.1 μg/well immobilized on biotin-coated plate; Her2-Fc 50 ng/well
# T1 construct: Her2-human Fc fusion protein that was composed of the ectodomain of Her2 and the Fc of human IgG; purchased Xcyte Therapeutic, Seattle, Wash
# Experimental: as §4, §5, §6
# [6] = in vivo; cited from earlier work
substance,measurement,setting,value
"ASA: Recombinant fusion of AHNP peptide, 11 amino acid linker GGGGSRSNSSS, streptavidin core and C-terminal NSSS linker plus His-tag; forms tetramer",inhibition of cell proliferation,"[1]; T6-17 cells, two different concentrations (0.69 μM or 6.9 μM), 48 hr, MTT",20-50%
same,molar concentration of ASA relative to the AHNP peptide necessary to achieve 50% cell growth inhibition in vitro,"[1]; in vitro, relative to AHNP peptide",about 10 times
same,inhibitory effect on cell proliferation,[2],Inhibitory effects were not observed
same,binding to biotin (ELISA),[3],bound to biotin in a dose-dependent manner
same,appearance of palpable tumor prevented until,"[4]; 11.25 mg/kg/week, subcutaneous, from day 0",7 days
same,molar excess of AHNP with comparable activity in reducing tumor growth in vivo,[4]; ASA compared with AHNP,~30 fold
same,reduction of tumor size,"[4]; 11.25 mg/kg/week, three subcutaneous injections each week, from day 0",62%
same,reduction of tumor size,"[4]; intraperitoneal, 15 mg/kg/week in three injections, from day 2 after palpable tumor, vs vehicle control",about 47.6%
same,binding to Her2-Fc fusion (ELISA),[5],able to bind to the Her2-Fc fusion in a dose-dependent manner
streptavidin: Tetrameric biotin-binding protein produced by Streptomyces avidinii; recombinant core used as control [reference compound],serum half-life,[6],about 12 hours
same,binding to biotin (ELISA),[3],bound to biotin in a dose-dependent manner
same,binding to Her2-Fc fusion (ELISA),[5],didn't bind to the Her2-human Fc fusion protein even at the highest concentration
